Results taken from article PMC6749524, “Identification of New Antifungal Agents Targeting Chitin Synthesis by a Chemical-Genetic Method” (Molecules, 2019).

Key:
[1] = system: C. albicans; assay: MIC of CFW in the presence of compounds, checkerboard assay; assay type: cell-based, Candida albicans
Protocol: (§1) Fresh cell cultures of WT S. cerevisiae and C. albicans ATCC10231 (OD600 = 0.8) were diluted to 10^4 CFU/mL in YPD medium. The in vitro synergistic and antagonistic effects of compounds were determined using checkerboard assay. MIC endpoints were defined as the lowest concentration of drugs, causing 80% decrease in viability compared to the drug-free control (MIC80). The calculation and interpretation of the fractional inhibitory concentration index (FICI) were carried out by referring to the document standards. FICI = (MIC of drug A in combination) / (MIC of drug A alone) + (MIC of drug B in combination) / (MIC of drug B alone). FIC ≤0.5 was considered as a synergistic effect, and >2 was considered as antagonism.

[2] = system: Mycobacterium smegmatis; assay: Growth inhibition of bacteria; assay type: cell-based; conditions: at 100 μg/mL
[3] = system: chitin level in C. albicans; assay: CFW staining of chitin, fluorescence microscopy; assay type: cell-based, Candida albicans; conditions: IMB-D10 12.5 μg/mL or IMB-F4 25 μg/mL, 5 hours
Protocol: (§2) WT S. cerevisiae and C. albicans ATCC10231 were grown to 10^5 CFU/mL in YPD medium and then treated with IMB-D10 (12.5 or 25 μg/mL), IMB-F4 (12.5 or 25 μg/mL), or 0.25% DMSO for 3 and 5 hours at 30 ℃. Cells were collected by centrifugation at 1500 g for 5 min and resuspended in PBS. Some cells were examined using 100 × / 1.25 oil immersion objective (DM2500, Leica) and analyzed by Leica las. Some cells were stained with 100 μg/mL Calcofluor White M2R (CFW, Sigma-Aldrich, St. Louis, MO, USA for 3 min and washed three times with water. Then, the cells were examined under the UV light for fluorescent signals.

[4] = system: C. albicans; assay: Growth curve assay (OD600 over time); assay type: cell-based, Candida albicans; conditions: 50 μg/mL and 100 μg/mL, p < 0.05
Protocol: (§3) Fresh cell cultures of WT yeast S. cerevisiae and Candida albicans ATCC10231 (OD600 = 0.8) were diluted in YPD medium (OD600 = 0.05). Then, IMB-D10 and IMB-F4 were added at concentrations ranging from 12.5 to 100 μg/mL. The cells were collected at different time points, and OD600 was measured with Multi-label Reader. Three experiments were performed independently, and the mean ± SD was calculated.

[5] = system: WT yeast cells (BY4741); assay: Growth curve assay (OD600 over time); assay type: cell-based, S. cerevisiae
Protocol: as §3

[6] = system: WT S. cerevisiae; assay: Checkerboard assay, synergy with caspofungin; assay type: cell-based; conditions: S. cerevisiae, MIC80; for MIC of Caspofungin Combination: MIC of caspofungin in combination with the named compound; for MIC Combination: MIC of the compound in combination with caspofungin
Protocol: as §1

[7] = system: C. albicans ATCC10231; assay: Checkerboard assay, synergy with caspofungin; assay type: cell-based; conditions: Candida albicans; for MIC of Caspofungin Combination: MIC of caspofungin in combination with the named compound; for MIC Combination: MIC of the compound in combination with caspofungin
Protocol: as §1

[8] = system: budding yeast S. cerevisiae; assay: Growth inhibition, broth microdilution MIC; assay type: cell-based
Protocol: The experiments were carried out using a broth microdilution protocol modified from the Clinical and Laboratory Standards Institute M-27A methods. WT S. cerevisiae and C. albicans were grown to mid-log phase in YPD medium. The cells were collected by centrifugation at 1500 g for 5 min and diluted with RPMI 1640 medium to the density of 1 × 10^4 CFU/mL. Then, the samples with various concentrations of compounds were dispensed at 0.2 mL/well in sterile 96-well microplates. The final concentrations of compounds ranged from 3.125 to 100 μg/mL with serial two-fold dilution. After incubation at 30 °C (S. cerevisiae) or 35 °C (C. albicans) for 24 hours, the minimal inhibitory concentration (MIC) was determined by measuring the optical density of the wells with cell cultures. The antifungal agent caspofungin was used as a positive control. All tests were performed in triplicate.

[9] = system: Escherichia coli ATCC 25922; assay: Growth inhibition of bacteria; assay type: cell-based; conditions: Escherichia coli ATCC 25922, at 100 μg/mL
[10] = system: Chs3; assay: iTRAQ protein level of chitin synthase; assay type: cell-based, S. cerevisiae; conditions: 25 μg/mL, 16 hours
Protocol: (§4) WT cells were grown to 10^5 CFU/mL in YPD medium and then treated with 25 μg/mL compounds or 0.25% DMSO for 16 hours at 30 °C. The cells were collected by centrifugation at 1500 g for 5 min and then stored at −80 °C. The frozen samples were grounded to a fine powder with liquid nitrogen and then transferred to an Eppendorf tube with phenol extraction buffer containing 1 mM Phenylmethanesulfonyl fluoride (PMSF). The samples were lysed with sonication, and proteins were extracted with phenol and then precipitated with ammonium acetate/methanol. The methanol was excluded by acetone, and the precipitates were collected by centrifugation at 12,000 g for 10 min at 4 °C. The precipitates were dried at room temperature for 3 min and dissolved in SDS lysis buffer for 2 hours. The samples were further centrifuged at 12,000 g for 10 min, and the collected supernatants were centrifuged again to remove precipitation completely. After the determination of protein concentration using Pierce^TM BCA Protein Assay kit (Thermo Scientific, Rockford, IL, USA), the protein samples were aliquoted for storage at −80 °C.
(§5) The Filter Aided Sample Preparation (FASP) digestion was performed according to a universal sample preparation method for proteome analysis. Peptides were labeled by iTRAQ using iTRAQ Reagents Multiplex Kit (AB SCIEX, Framingham, MA, USA) and then were fractionated by SCX chromatography using the AKTA Purifier system (GE Healthcare, Stockholm, Sweden). LC-MS/MS analysis was performed on Nano LC-1D plus (Eksigent, San Francisco, CA, USA) that was coupled to Triple TOF 6600 spectrometer (AB SCIEX, Framingham, MA, USA) for 50 min. The mass spectrometer was operated in positive ion mode. The MS/MS data were analyzed for protein identification and quantification using ProteinPilot software (v.5). The local false discovery rate was estimated with the integrated PSPEP tool in the ProteinPilot Software to be 1% after searching against a decoy concatenated UniProt S. cerevisiae protein database. For a protein showing differential expression, it must have been identified and quantified with at least one significant peptide, and the p-values of the proteins quantitation should be less than 0.05 and fold change ≥1.5.

[11] = system: Chs1; assay: iTRAQ protein level of chitin synthase; assay type: cell-based, S. cerevisiae; conditions: 25 μg/mL, 16 hours
Protocol: as §4, §5

[12] = system: Chs2; assay: iTRAQ protein level of chitin synthase; assay type: cell-based, S. cerevisiae; conditions: 25 μg/mL, 16 hours
Protocol: as §4, §5

[13] = system: WT yeast cells; assay: Cell division morphology, light microscopy; assay type: cell-based, S. cerevisiae; conditions: treatment for 5 hours at 30 °C (IMB-D10 25 μg/mL)
Protocol: as §2

Chs2, sequence (P14180 whole entry): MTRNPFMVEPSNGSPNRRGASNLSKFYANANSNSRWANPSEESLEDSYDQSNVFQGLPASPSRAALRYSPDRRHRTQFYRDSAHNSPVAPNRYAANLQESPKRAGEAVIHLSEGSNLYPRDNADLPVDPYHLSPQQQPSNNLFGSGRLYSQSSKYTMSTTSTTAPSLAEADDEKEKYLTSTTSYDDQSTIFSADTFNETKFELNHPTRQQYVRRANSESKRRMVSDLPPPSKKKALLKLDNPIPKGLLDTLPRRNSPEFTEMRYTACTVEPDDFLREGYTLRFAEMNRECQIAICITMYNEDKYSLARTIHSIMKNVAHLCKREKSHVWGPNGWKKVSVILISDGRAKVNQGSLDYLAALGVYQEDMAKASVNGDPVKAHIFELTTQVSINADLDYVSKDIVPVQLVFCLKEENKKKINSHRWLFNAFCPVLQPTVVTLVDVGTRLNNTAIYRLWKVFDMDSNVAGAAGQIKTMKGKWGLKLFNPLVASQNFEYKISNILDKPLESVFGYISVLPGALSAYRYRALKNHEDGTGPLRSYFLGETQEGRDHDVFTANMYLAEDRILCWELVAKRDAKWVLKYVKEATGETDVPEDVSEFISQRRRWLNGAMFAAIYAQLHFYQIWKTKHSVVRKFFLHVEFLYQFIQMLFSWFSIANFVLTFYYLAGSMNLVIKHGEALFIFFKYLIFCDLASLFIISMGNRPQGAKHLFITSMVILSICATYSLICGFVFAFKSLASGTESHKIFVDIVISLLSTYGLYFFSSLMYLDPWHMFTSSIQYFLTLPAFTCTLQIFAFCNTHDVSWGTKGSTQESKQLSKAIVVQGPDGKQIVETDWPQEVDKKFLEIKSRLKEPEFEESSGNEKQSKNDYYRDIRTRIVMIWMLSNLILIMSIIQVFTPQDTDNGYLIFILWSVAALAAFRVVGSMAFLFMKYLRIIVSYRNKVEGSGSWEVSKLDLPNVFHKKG
Chs1, sequence (P08004 whole entry): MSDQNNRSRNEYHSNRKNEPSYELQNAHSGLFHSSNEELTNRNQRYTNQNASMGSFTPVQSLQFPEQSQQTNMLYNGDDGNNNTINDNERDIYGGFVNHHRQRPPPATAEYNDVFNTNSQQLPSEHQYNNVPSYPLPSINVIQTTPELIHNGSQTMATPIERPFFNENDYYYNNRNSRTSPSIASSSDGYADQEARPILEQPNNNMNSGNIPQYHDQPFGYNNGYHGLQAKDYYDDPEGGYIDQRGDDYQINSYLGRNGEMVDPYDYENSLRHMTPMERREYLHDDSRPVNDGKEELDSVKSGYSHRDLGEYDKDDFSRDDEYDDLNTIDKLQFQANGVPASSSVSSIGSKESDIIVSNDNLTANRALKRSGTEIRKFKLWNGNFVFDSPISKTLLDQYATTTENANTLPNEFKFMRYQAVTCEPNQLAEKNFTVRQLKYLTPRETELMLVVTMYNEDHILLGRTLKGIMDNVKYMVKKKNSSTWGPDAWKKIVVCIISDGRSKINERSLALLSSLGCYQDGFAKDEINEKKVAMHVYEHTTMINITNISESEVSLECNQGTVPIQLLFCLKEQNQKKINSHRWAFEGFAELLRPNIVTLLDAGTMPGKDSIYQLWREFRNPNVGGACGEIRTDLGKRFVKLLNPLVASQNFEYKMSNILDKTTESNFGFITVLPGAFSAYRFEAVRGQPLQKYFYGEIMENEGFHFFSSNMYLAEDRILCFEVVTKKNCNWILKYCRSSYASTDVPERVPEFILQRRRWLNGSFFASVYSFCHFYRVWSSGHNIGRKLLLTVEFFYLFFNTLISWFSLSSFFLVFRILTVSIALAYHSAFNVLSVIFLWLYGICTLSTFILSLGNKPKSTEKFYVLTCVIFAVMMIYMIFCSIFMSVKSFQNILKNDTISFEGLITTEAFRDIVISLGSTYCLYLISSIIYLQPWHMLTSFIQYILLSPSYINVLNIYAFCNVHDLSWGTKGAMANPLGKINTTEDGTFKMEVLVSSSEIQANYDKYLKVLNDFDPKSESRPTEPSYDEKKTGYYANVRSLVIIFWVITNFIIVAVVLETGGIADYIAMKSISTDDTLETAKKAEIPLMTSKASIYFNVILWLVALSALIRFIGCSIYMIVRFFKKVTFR
Chs3, sequence (P29465 whole entry): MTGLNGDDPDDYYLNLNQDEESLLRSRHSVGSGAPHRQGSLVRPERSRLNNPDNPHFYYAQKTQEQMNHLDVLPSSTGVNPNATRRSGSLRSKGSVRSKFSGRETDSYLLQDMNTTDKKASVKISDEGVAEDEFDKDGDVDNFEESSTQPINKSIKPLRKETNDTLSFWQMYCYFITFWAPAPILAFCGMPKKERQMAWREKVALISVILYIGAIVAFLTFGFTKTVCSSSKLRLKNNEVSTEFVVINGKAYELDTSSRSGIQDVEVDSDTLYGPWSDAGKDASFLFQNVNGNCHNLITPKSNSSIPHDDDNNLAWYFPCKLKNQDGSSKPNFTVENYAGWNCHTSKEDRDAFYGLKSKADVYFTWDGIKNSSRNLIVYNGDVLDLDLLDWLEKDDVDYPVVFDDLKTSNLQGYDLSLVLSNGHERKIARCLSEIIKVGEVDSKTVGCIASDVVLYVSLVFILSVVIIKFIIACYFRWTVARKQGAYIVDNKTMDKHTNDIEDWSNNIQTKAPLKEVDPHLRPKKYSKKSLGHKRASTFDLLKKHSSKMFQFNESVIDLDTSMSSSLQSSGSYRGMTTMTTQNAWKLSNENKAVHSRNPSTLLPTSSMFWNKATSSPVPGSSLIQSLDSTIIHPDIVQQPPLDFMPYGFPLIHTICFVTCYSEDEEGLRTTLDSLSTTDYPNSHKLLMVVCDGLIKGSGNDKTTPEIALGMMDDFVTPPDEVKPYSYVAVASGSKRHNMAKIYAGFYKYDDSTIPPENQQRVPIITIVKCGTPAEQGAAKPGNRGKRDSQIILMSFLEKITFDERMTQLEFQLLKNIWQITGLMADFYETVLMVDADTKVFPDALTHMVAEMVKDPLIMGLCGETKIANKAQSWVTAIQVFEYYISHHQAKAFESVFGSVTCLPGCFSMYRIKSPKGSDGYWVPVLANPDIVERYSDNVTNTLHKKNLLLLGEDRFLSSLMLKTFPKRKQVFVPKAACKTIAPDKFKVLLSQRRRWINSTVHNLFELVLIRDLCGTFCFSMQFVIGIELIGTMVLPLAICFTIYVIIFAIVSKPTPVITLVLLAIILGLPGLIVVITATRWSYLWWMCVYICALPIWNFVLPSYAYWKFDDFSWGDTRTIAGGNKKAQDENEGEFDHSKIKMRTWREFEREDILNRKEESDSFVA

Molecule | growth inhibition [2] | chitin level by CFW staining [3] | growth of C. albicans over time [4] | growth of yeast cells over time (OD) [5] | MIC of Caspofungin Combination [6] | MIC Combination [6] | MIC of Caspofungin Combination ([7]; MIC80) | MIC Combination ([7]; MIC80) | growth inhibition [9] | relative abundance of Chs3 compared with cells treated with DMSO [10] | relative abundance of Chs1 compared with cells treated with DMSO [11] | relative abundance of Chs2 compared with cells treated with DMSO [12] | cell division / cell separation morphology [13] | other results
COc1cc(OC)cc(C(=O)N(CCn2ccnc2)c2nc3ccc(OC)cc3s2)c1 [IMB-F4, N-(2-(1H-imidazol-1-yl)ethyl)-3,5-dimethoxy-N-(6-methoxybenzo[d]thiazol-2-yl)benzamide] | did not inhibit the growth | decreased chitin level | growth inhibition was observed after incubation for 6 hours | dose-dependent slow growth | 0.0075 µg/mL | 25 µg/mL | 0.003125 µg/mL | 12.5 µg/mL | did not inhibit the growth | remained similar | remained similar | remained similar | normal cell separation | resistance of C. albicans to CFW ([1]; 25 and 50 μg/mL IMB-F4): increased the resistance; MIC ([6]; Saccharomyces cerevisiae, compound alone, read-out: MIC Alone): > 100 µg/mL; MIC ([7]; ATCC10231, compound alone, MIC80, read-out: MIC Alone): > 100 µg/mL; FICI ([7]; fractional inhibitory concentration index with caspofungin, ≤0.5 synergistic): <0.5; cell growth inhibition ([8]; S. cerevisiae, at 100 μg/mL): did not inhibit cell growth
N-(2-(diethylamino) ethyl)-N-(7-hydroxy-4-methoxybenzo[d]thiazol -2-yl)-2-oxo-2H-chromene-3-carboxamide [IMB-D10] | did not inhibit the growth | decreased chitin level | reduced after 4 hours incubation | dose-dependent slow growth | 0.0075 µg/mL | 12.5 µg/mL | 0.00625 µg/mL | 12.5 µg/mL | did not inhibit the growth | 18.33 ± 1.89% | 22 ± 5.10% | 21.33 ± 6.18% | some yeast cells failed to divide | MIC of CFW in the presence of IMB-D10 ([1]; C. albicans, IMB-D10 at 50 μg/mL): 100 µg/mL; MIC Alone ([6]; compound alone): 50 µg/mL; MIC Alone ([7]; compound alone, MIC80): 100 µg/mL; MIC ([8]; budding yeast S. cerevisiae): 50 µg/mL
